Assay results: US7101915B1, “P-terphenyl compounds” (Shionogi & Co., Ltd., priority 1996, dated 2006)
Values after ≈ are worked out from the molar mass of the structure shown. Marks after values point to notes of the source that are not given here.

Key:
[1] = tested on: IL-5 production of mouse T cell strain EL-4 (TPA); assay: Suppressive effect on the cytokine production of mouse T cell strain EL-4: IL-5; type: cell-based; conditions: EL-4, TPA 10 ng/ml, 24 hours, ELISA
Procedure: (§1) Experiment 8 Suppressive Effect on the Cytokine Production of a Mouse T Cell Strain EL-4 In 48-well plate were added 2×10^5 mouse T cell strain EL-4 which were suspended in 0.2 ml of 1% fetal bovine serum-added RPMI 1640 medium (2 mM of sodium bicarbonate, 50 units/ml of penicillin, 50 μg/ml of streptomycin and 5×10^−5 M of 2-mercaptoethanol were added) and the compound of the present invention of a predetermined concentration. TPA was added as a cell stimulater at a final concentration of 10 ng/ml to adjust a final volume of each well to 0.4 ml. Each compound of the present invention was dissolved in DMSO and diluted with the above RPMI 1640 medium, and then for added at a final concentration of 100 ng/ml or less. The cells in the 48-well plate were cultivated in an incubator keeping the humidity 100%, carbon dioxide 5% and air 95% at 37° C. for 24 hours to collect a supernatant of each well. The amount of IL-2, IL-4 and IL-5 released in the medium of each well were measured with the ELISA kit (Amersham K. K.) to be taken as an index of the cytokine production of the cells. TPA free group (-TPA) was used as a control.

[2] = tested on: IgG1 production of mouse spleen lymphocytes; assay: Suppressive effect on antibody production of mouse spleen lymphocytes: IgG1; type: cell-based, BALB/c (nu/nu) mice; conditions: LPS + IL-4, 10 days
Procedure: (§2) Experiment 6 Suppressive Effect on Antibody Production of Mouse Spleen Lymphocytes 1. Experimental Method 1) Animals
(§3) BALB/c (nu/nu) mice were bought from Japan SLC, Inc. (Shizuoka) and 7 weeks old-male mice were used.
(§4) RPMI medium (Nissui Pharmaceutical Co., Ltd.) containing 10% fetal bovine serum (HyClone Lab.) inactivated at 56° C. for 30 minutes, penicillin (100 units/ml) and streptomycin (100 μg/ml) (GIBCO) was used for experiments.
(§5) Each of the compounds was dissolved in dimethylsulfoxide (Nakaraitesk) at […] and diluted with the medium to adjust a final concentration to 0.1 μg/ml −10 μg/ml.
(§6) 4) Mouse Spleen Lymphocytes […]
(§7) In 96-well cultivating plate (Sumitomo Bakelite Company Limited) mouse spleen lymphocytes were inoculated 2×10^5 cells per well. […] After the cultivation for 10 days, the amount of the antibody in a supernatant was quantified by ELISA method.
(§8) 7) Quantification of the IgG1, IgG2a and IgM Antibodies
(§9) In 96-well plate 50 μl of 10 μg/ml Goat Anti-Mouse Ig (IgM+G+A, H+ L) (Southern Biotechnology, Birmingham) was added and the plate was coated at 4° C. overnight. […] After washing three times with PBST, 100 μl of culture supernatant which was diluted with PBS or 100 μl of an antibody standard solution (Mouse IgG1 standard, Mouse IgG2a standard, Mouse IgM standard, BETHYL Laboratories) of a pre-determined concentration was added and incubated for 1 hour. […]

[3] = tested on: IgM production of mouse spleen lymphocytes; assay: Suppressive effect on antibody production of mouse spleen lymphocytes: IgM; type: cell-based, BALB/c (nu/nu) mice; conditions: LPS + IL-4, 10 days
Procedure: as §2, §3, §4, §5, §6, §7, §8, §9

[4] = tested on: IL-4 production of mouse T cell strain EL-4 (TPA); assay: Suppressive effect on the cytokine production of mouse T cell strain EL-4: IL-4; type: cell-based; conditions: EL-4, TPA 10 ng/ml, 24 hours, ELISA
Procedure: as §1

[5] = tested on: IgE production of mouse spleen lymphocytes (lipopolysaccharide, IL-4); assay: Suppressive effect on antibody production of mouse spleen lymphocytes: IgE; type: cell-based, BALB/c (nu/nu) mice; conditions: LPS + IL-4, 10 days
Procedure: as §2, §3, §4, §5
4) Mouse Spleen Lymphocytes
A spleen of mouse was taken out and put in a cultivating schale which was filled with Hanks' solution. The spleen was crushed and the cells were pushed out from the organ and filtered through a metal mesh (200 mesh). After the collected cell suspension was washed by centrifugation with sterile Hanks' solution (Nissui Pharmaceutical Co., Ltd.), sterile distilled water was added. […]
as §7
6) Quantification of the IgE Antibody
A commercial mouse IgE EIA kit (Yamasa Shoyu Co., Ltd.) was used for the quantification of the IgE. […]

[6] = tested on: IgG2a production of mouse spleen lymphocytes; assay: Suppressive effect on antibody production of mouse spleen lymphocytes: IgG2a; type: cell-based, BALB/c (nu/nu) mice; conditions: LPS + IL-4, 10 days
Procedure: as §2, §3, §4, §5, §6, §7, §8, §9

[7] = tested on: IL-2 production of mouse T cell strain EL-4 (TPA); assay: Suppressive effect on the cytokine production of mouse T cell strain EL-4: IL-2; type: cell-based; conditions: EL-4, TPA 10 ng/ml, 24 hours, ELISA
Procedure: as §1

[8] = tested on: C3H/HeN mouse splenocytes stimulated with Concanavalin A (Con A); assay: Suppressive effect on mitogenic activity of mouse splenocytes in vitro, Con A as mitogen (MTT); type: cell-based; conditions: Con A 5 μg/ml as mitogen, 3 days; for IC50: Mus musculus, Splenocyte, 72 h, read-out: ConA IC50
Procedure: (§10) Experiment 1 Suppressive Effect on a Mitogenic Activity of Mouse Splenocytes In Vitro
(§11) In 96-well microtiter plate 5×10^5 C3H/HeN mouse splenocytes suspended in 0.1 ml of 10% fetal bovine serum-fortified RPMI 1640 medium containing 2 mM of sodium bicarbonate, 50 units/ml of penicillin, 50 μg/ml of streptomycin and 5×10^−5 M of 2-mercaptoethanol were added. Then, 5 μg/ml of Concanavalin A (Con A) or 10 μg/ml of lipopolysaccharide (LPS) as a mitogen and the compound of a pre-determined concentration of the present invention were added to each well so that a final volume of each well reached 0.2 ml. Each compound of the present invention was dissolved in dimethylsulfoxide (DMSO) and diluted with the above RPMI 1640 medium to adjust the final concentration of 100 ng/ml or less. The splenocytes in the 96-well microtiter plate were cultivated at 37° C. for 3 days in an incubator keeping the humidity 100%, carbon dioxide 5% and air 95%. Then, 25 μl of 6 mg/ml MTT [3-(4,5-dimethylthiazol-2-yl)-2,5-diphenyltetrazolium bromide] (Sigma) was added to the each well and cultivated at 37° C. for 4 hours under the same conditions. After the cultivation, 50 μl of 0.02 N hydrochloric acid in 20% sodium dodecyl sulfate (SDS) was added to formazan generated and left at 37° C. for 24 hours for dissolving formazan. An absorption intensity (OD) of formazan generated in proportion to the number of living cells was measured with an immunoreader (InterMed) equipped with a 570 nm filter (The Journal of Immunological Method, 65, 55-63, 1983). The 50% inhibitory concentration of a cell proliferation (IC 50) was calculated from a correlation between the concentration of the compound of the present invention and the absorption intensity.

[9] = tested on: C3H/HeN mouse splenocytes stimulated with lipopolysaccharide (LPS); assay: Suppressive effect on mitogenic activity of mouse splenocytes in vitro, LPS as mitogen (MTT); type: cell-based; conditions: LPS 10 μg/ml as mitogen, 3 days; for IC50: Mus musculus, Splenocyte, 72 h
Procedure: as §10, §11

[10] = tested on: mouse thymoma strain EL4 cells; assay: Anti-proliferative activity on EL4 cells (MTT); type: cell-based; conditions: 3 days; for IC50: Mus musculus, 72 h, read-out: EL-4 IC50
Procedure: Experiment 2 Anti-Proliferative Activity on EL4 Cells
In 96-well microtiter plate 4×10^4/0.1 ml of mouse thymoma strain EL4 cells were added and 0.1 ml of the compound of the present invention was added to the mixture so that the concentration was in the range of 0-5,000 ng/ml. After the cultivation for 3 days, the IC50 was calculated by the MTT method as described in Experiment 1.

[11] = tested on: anti-OVA IgE antibody titer (PCA titer); assay: Suppressive effect on the IgE production against ovalbumin (OVA), PCA titer; type: in vivo, BALB/c mice; conditions: untreated group 9-12
Procedure: Experiment 4 Suppressive Effect on the IgE Production Against Ovalbumin (OVA)
BALB/c mice (female, 8-10 weeks old) and Wistar rats (female, 8-10 weeks old) which were bought from Japan SLC, Inc. (Shizuoka) were used.
BALB/c mice were immunized by an intraperitoneal administration of 0.2 ml suspension of 2 μg of ovalbumin (OVA) and 2 mg of aluminium hydroxide gel in physiological saline. After 10 days, blood was drawn from hearts, sera were separated and stocked at −40° C. till the measurement of an IgE antibody titer.
After the compound of the present invention was dissolved or suspended in N, N-dimethylacetoamide, the mixture was diluted 20 times with miglyol 812 neutral oil. The obtained solution was orally administered to mice at 0.1 ml per mouse. The administration was continued for 10 days from the immunizing day to the day before drawing blood. IPD-1151-T (a compound described in Jpn. Pharmacol. (1993) 61, 31–39) and a compound No. 36 (a compound 36 described in J. Med. Chem. (1997) 40: 395–407) were examined as controls by the same method.
4) Measurement of Anti-OVA IgE Antibody Titer (PCA Titer)
The samples 2-fold diluted with physiological saline were prepared from the obtained mouse serum and each 50 μl of the solution was intradermally injected to backs of Wistar rats which previously hair cut. After 24 hours, a passive cutaneous anaphylaxis reaction (PCA) was induced by an intravenous injection of 0.5 ml of physiological saline containing 1 mg of OVA and 5 mg of Evans' blue dye. After 30 minutes, the rats were sacrified and the highest dilution rate of the serum giving bluing with a diameter of more than 5 mm was recorded as the PCA titer. For example, when a serum is positive for the PCA reaction till […], the anti-OVA IgE antibody titer of the mouse is defined as 7.

[12] = tested on: BGG-specific IgE in a serum; assay: Suppressive effect on the antibody production against bovine γ globulin (BGG), sandwich ELISA; type: in vivo, BALB/c mice; conditions: 100 mg/kg p.o. every day, serum after 21 days
Procedure: Experiment 3 Suppressive Effect on the Antibody Production Against Bovine γ Globulin (BGG)
On an immunizing day and 7 days after, 50 μg of BGG was subcutaneously inoculated to backs of BALB/c mice (male, 6-8 weeks old) for inducing an immune reaction. After the compound of the present invention was dissolved or suspended in N, N-dimethylacetoamide, the mixture was diluted with miglyol 812 neutral oil. A proper volume of the compound was orally administered (p.o.) to mice every day from the next day of the immunizing. A two hundredth weight to body weight of miglyol was administered to mice in a control group. After 21 days, blood was drawn from each mouse and a serum was separated. BGG-specific IgE in a serum was measured by the sandwich ELISA method using a BGG-coating plate. The suppressive rate of IgE production was calculated from the dilution rate of the serum which has the same absorption intensity as that of the control group for judging the effect of the compound of the present invention.

COc1cc(-c2ccc(OCC=C(C)C)c(F)c2)c(OC)cc1-c1ccc(O)cc1 [Compound I-73]
IC50 IL-5 [1]: 15 ng/mL (≈ 0.0367 µM)
IC50 IgG1 [2]: 2600 ng/mL
IC50 IgM [3]: 4200 ng/mL
IC50 IL-4 [4]: 20 ng/mL (≈ 0.049 µM)
IC50 IgE [5]: 0.044 ng/mL
IC50 IgG2a [6]: 4900 ng/mL
IC50 IL-2 [7]: 500 ng/mL (≈ 1.22 µM)

C#CC(O)COc1ccc(-c2c(OC)cc(-c3ccc(O)cc3)c(OC)c2O)cc1O (centres unmarked) [Compound I-301]
IC50 IL-5 [1]: 120 ng/mL (≈ 0.284 µM)
ConA IC50 [8]: 7.06 ng/mL
LPS IC50 [9]: 11.0 ng/mL
IC50 IL-4 [4]: <10 ng/mL
EL-4 IC50 [10]: 15.8 ng/mL
IC50 IL-2 [7]: 500 ng/mL (≈ 1.18 µM)

COc1cc(-c2ccc(NCC=C(C)C)c(F)c2)c(OC)cc1-c1ccc(N(C)C)cc1 [Compound I-484]
ConA IC50 [8]: 14.7 ng/mL
LPS IC50 [9]: 32.2 ng/mL
PCA Titer ([11]; 40 mg/kg orally for 10 days): <0
EL-4 IC50 [10]: 91.4 ng/mL

CC(C)=CCOc1ccc(-c2cc(C)c(-c3ccc(O)cc3)cc2C)cc1O [Compound I-525]
ConA IC50 [8]: 0.76 ng/mL
LPS IC50 [9]: 1.11 ng/mL
Suppressive rate of antigen-specific IgE [12]: >95%
EL-4 IC50 [10]: 5.0 ng/mL

CC(C)=CCNc1ccc(-c2cc(C)c(-c3ccc(N(C)C)cc3)cc2C)cc1F [Compound I-925]
melting point: 100 to 102 °C
PCA Titer ([11]; 40 mg/kg orally for 10 days): 1**

COc1cc(-c2ccc(O)cc2)c(OC)c(O)c1-c1ccc(OCC=C(Br)Br)c(O)c1 [Compound I-931]
IC50 [8]: 2.93 ng/mL (≈ 0.00531 µM)
melting point: 166 to 168 °C
IC50 [9]: 5.76 ng/mL (≈ 0.0104 µM)
IC50 [10]: 4.37 ng/mL (≈ 0.00791 µM)

COc1cc(-c2c(O)c(OC)c(-c3ccc(O)cc3)c(F)c2OC)ccc1OCC=C(C)C [Compound I-1107]
IC50 [8]: 5.8 ng/mL (≈ 0.0128 µM)
IC50 [9]: 9.1 ng/mL (≈ 0.02 µM)
IC50 [10]: 34.1 ng/mL (≈ 0.075 µM)

CCOCC(O)COc1ccc(NC(=O)CC[S+](C)C)cc1.Cc1ccc(S(=O)(=O)[O-])cc1 (centres unmarked) [IPD-1151-T, Suplatast Tosilate, reference compound]
PCA Titer ([11]; 50 mg/kg orally for 10 days): 9.8

O=C(Cc1ccc(Oc2ccc3cc(OCc4ccccc4)ccc3c2)cc1)Nc1ccccc1C(=O)O [No.36]
PCA Titer ([11]; 10 mg/kg orally for 10 days): 10.4
